This note sets out measurements from patent US20250282802A1, “P[…] AND METHODS” (priority 2020, published 2025).

Like-named read-outs stand apart in the source and are kept apart here.

In general, IC50 refers to the concentration that inhibits the measured activity by half. The low end stands for greater potency in that assay, the high end for weaker potency in that assay. In general, Emax refers to the size of the effect at its maximum, as opposed to the concentration needed. The MIC is the lowest concentration found to suppress growth.

Assay [1] relates to HCT-116 (human colon cancer). Put plainly: Cell culture cytotoxicity screening (Alamar Blue), HCT-116. It counts as cell-based. Conditions: HCT-116, Alamar Blue, 72 hours. How it is done: FIG. 8. Cytotoxicity of pantaphos across various cancer cell lines. Assays were conducted as described (mBio. 2021 Feb. 2; 12(1):e03402-20), using the Alamar Blue method with 72-hour treatment using Raptinal ([…]) as Dead cell control; n=3. Cell seeding densities: CT26 (colon carcinoma) 2000 c/w; HOS (osteosarcoma) 2500 c/w; ES-2 (ovarian carcinoma), HCT-116 (colorectal carcinoma), A-549 (lung carcinoma), A-172 (glioblastoma), D54 (glioblastoma), U87 (glioblastoma), T98G (glioblastoma), SK-ML-28 (melanoma), MCF-7 (breast cancer), AM38 (glioblastoma) and MDA-MB-231 (breast cancer) 3000 c/w; U118MG (malignant glioma) 4000 c/w; HepG2 (liver cancer) 8000 c/w. c/w=cells per well. […]
Cell culture cytotoxicity screening. The compounds were evaluated for their ability to kill cancer cell lines in culture, using HOS (osteosarcoma); ES-2 (ovarian cancer); HCT 116 (colon cancer); A549 (lung carcinoma); and A172 (glioma) cells. Human skin fibroblast cells (HFF-1) were also assessed. […] 72 hours post-treatment, cell viability was assessed using the Alamar Blue method (http://www.bio-rad-antibodies.com/measuring-cytotoxicity-proliferation-spectrophotometry-fluorescence-alamarBlue.html). […] Conversion of Alamar Blue was measured with a plate reader (SpectraMax M3; Molecular Devices) by fluorescence (excitation wavelength: 555 nm; emission wavelength: 585 nm; cutoff 570 nm; autogain). […]
For orientation: The colour change of resazurin is a common sign of viable cells or microbes.

The test system of assay [2] is Saccharomyces cerevisiae X2180-1A. Put plainly: Fungicidal bioassay (MIC), Saccharomyces cerevisiae. Format: cell-based. Conditions: for MIC: Saccharomyces cerevisiae, X21801A, 48 hrs growth, CLSI. How it is done: Bacteria, plasmids and growth conditions. Bacterial strains, plasmids and primers used in this study are described in Table 3 and 4. General chemical and molecular biology reagents were purchased from Sigma-Aldrich or New England Biolabs. Phosphinothricin (glufosinate) was purchased from GoldBio (CAS #77182-82-2). Standard bacterial growth media were prepared as described (Current Protocols in Molecular Biology 2019, 125:e81, e82, e83). E. coli strains were typically grown at 37° C.; P. ananatis strains were typically grown at 30° C. Phosphonate induction media (PIM) was prepared as follows: 8.37 g/L MOPS, 0.72 g/L Tricine, 0.58 g/L NaCl, 0.51 g/L NH4Cl, 1.6 g/L KOH, 0.1 g/L MgCl2·6H2O, 0.05 g/L K2SO4, 0.2 g/L K2HIPO4 were dissolved H2O and steam sterilized for 20 min at 121° C. After cooling, 1× sterile trace element solution was added (1000× stock: 1.5 g/L nitrilotriacetic acid trisodium salt, 0.8 g/L Fe(NH4)2(SO4)2·7H2O, 0.2 g/L Na2SeO3, 0.1 g/L CoCl2·6H2O, 0.1 g/L MnSO4·H2O, 0.1 g/L Na2MoO4·2H2O, 0.1 g/L Na2WO4·2H2O, 0.1 g/L ZnSO4·7H2O, 0.1 g/L NiCl2·6H2O, 0.01 g/L H3BO3, 0.01 g/L CuSO4·5H2O) followed by addition of 1% (v/v) sterile glycerol and 50 μg/mL sterile kanamycin. For culturing of Candida and Saccharomyces strains, Rosewell Park Memorial Institute 1640 medium (RPMI; Sigma-Aldrich R6504) was used for liquid culturing and Sabouraud Dextrose Agar (SDA; Difco™ 210950) for solid plating unless otherwise specified. For Aspergillus strains, Rosewell Park Memorial Institute 1640 medium (RPMI) was used for liquid culturing and Potato Dextrose Agar (PDA; Difco™ 213400) was used for solid plating unless otherwise specified. YMM medium (6.7 g/L yeast nitrogen base without amino acids [BD Difco™ 291940], 20 g/L glucose, 1× trace element solution) was used as minimal media for fungal strains.
Fungicidal bioassays. […] Minimum Inhibitory Concentration (MIC) was determined visually by finding the concentration of compound at which there was no visual difference between that concentration and the uninoculated media control.

In the case of `O=C(O)/C=C(\C(=O)O)C(O)P(=O)(O)O` (centres unmarked) [pantaphos, 2-(hydroxy(phosphono)methyl)maleate], the midpoint of inhibition in assay [1], the IC50, lay at 10.4 ± 2 µM. In addition, in assay [1] (read-out: Emax = percentage cell death (converted)), the Emax was 59%. Also, the MIC is greater than 62.5 µM in assay [2] (M9 minimal medium, read-out: MIC, Minimal medium) and greater than 125 µM in assay [2] (RPMI 1640 medium, read-out: MIC, Rich medium). Moreover, the “effect on the growth of fungi, in words” value in assay [2] (rich or minimal media) is “no effect on the growth”.
